Assay results reported in patent publication US8586617B2, “Aminomethyl-4-imidazoles” (Hoffmann-La Roche Inc., priority 2006, dated 2013).

Target: TAAR1 (Mus musculus (Mouse), UniProt Q923Y8)
Assay: TAAR1 radioligand binding assay ([3H]-rac-2-(1,2,3,4-tetrahydro-1-naphthyl)-2-imidazoline, membranes of stably transfected HEK293 cells)
Details: read-out: Ki (μM) mouse; mouse TAAR1; radioligand [3H]-rac-2-(1,2,3,4-tetrahydro-1-naphthyl)-2-imidazoline at 60 nM; 4° C., 30 minutes
Procedure: The ability of the compounds of the present invention to bind to TAAR1 was investigated in accordance with the test given hereinafter.
For the generation of stably transfected cell lines HEK293 cells were transfected with the pIRESneo2 expression plasmids containing the TAAR coding sequences (described above) with Lipofectamine 2000 (Invitrogen) according to the instructions of the manufacturer, and 24 hours post transfection the culture medium was supplemented with 1 mg/ml G418 (Sigma, Buchs, Switzerland). After a culture period of about 10 days, clones were isolated, expanded and tested for responsiveness to trace amines (all compounds purchased from Sigma) with the cAMP Biotrak Enzyme immunoassay (EIA) System (Amersham) following the non-acetylation EIA procedure provided by the manufacturer.
Cells at confluence were rinsed with ice-cold phosphate buffered saline without Ca^2+ and Mg^2+ containing 10 mM EDTA and pelleted by centrifugation at 1000 rpm for 5 min at 4° C. The pellet was then washed twice with ice-cold phosphate buffered saline and cell pellet was frozen immediately by immersion in liquid nitrogen and stored until use at −80° C. The cell pellet was then suspended in 20 ml HEPES-NaOH (20 mM), pH 7.4 containing 10 mM EDTA, and homogenized with a Polytron (PT 3000, Kinematica) at 10,000 rpm for 10 seconds. The homogenate was centrifuged at 48,000×g for 30 minutes at 4° C. and the pellet resuspended in 20 ml HEPES-NaOH (20 mM), pH 7.4 containing 0.1 mM EDTA (buffer A), and homogenized with a Polytron at 10,000 rpm for 10 seconds. The homogenate was then centrifuged at 48,000×g for 30 minutes at 4° C. and the pellet resuspended in 20 ml buffer A, and homogenized with a Polytron at 10,000 rpm for 10 seconds. […] The homogenate was then centrifuged at 48,000×g for 10 minutes at 4° C., resuspended in HEPES-NaOH (20 mM), pH 7.0 including MgCl2 (10 mM) and CaCl2 (2 ml) (buffer B) at 200 μg protein per ml and homogenized with a Polytron at 10,000 rpm for 10 seconds.
Binding assay was performed at 4° C. in a final volume of 1 ml, and with an incubation time of 30 minutes. […] Non-specific binding was defined as the amount of [^3H]-rac-2-(1,2,3,4-tetrahydro-1-naphthyl)-2-imidazoline bound in the presence of the appropriate unlabelled ligand (10 μM). Competing ligands were tested in a wide range of concentrations (10 pM-30 μM). […] Each experiment was performed in duplicate. All incubations were terminated by rapid filtration through UniFilter-96 plates (Packard Instrument Company) and glass filter GF/C, pre-soaked for at least 2 h in polyethylenimine 0.3%, and using a Filtermate 96 Cell Harvester (Packard Instrument Company). The tubes and filters were then washed 3 times with 1 ml aliquots of cold buffer B. Filters were not dried and soaked in Ultima gold (45 D/well, Packard Instrument Company) and bound radioactivity was counted by a TopCount Microplate Scintillation Counter (Packard Instrument Company).

Sequence of TAAR1 (Q923Y8 whole entry): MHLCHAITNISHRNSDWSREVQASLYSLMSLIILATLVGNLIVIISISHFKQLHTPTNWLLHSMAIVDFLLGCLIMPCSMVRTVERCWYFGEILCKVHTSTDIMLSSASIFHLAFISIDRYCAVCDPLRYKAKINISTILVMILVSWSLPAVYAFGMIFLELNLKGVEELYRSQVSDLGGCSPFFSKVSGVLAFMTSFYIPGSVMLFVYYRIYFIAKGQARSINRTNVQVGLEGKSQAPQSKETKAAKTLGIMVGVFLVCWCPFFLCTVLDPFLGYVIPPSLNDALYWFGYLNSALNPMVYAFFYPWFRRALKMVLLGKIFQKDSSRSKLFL

SMILES	Ki [µM]
CN(Cc1cnc[nH]1)c1cccc(Oc2ccccc2)c1 [Example 175, (3H-Imidazol-4-ylmethyl)-methyl-(3-phenoxy-phenyl)-amine]	0.0036
CCN(Cc1cnc[nH]1)c1ccc2ccccc2c1 [Example 82, Ethyl-(3H-imidazol-4-ylmethyl)-naphthalen-2-yl-amine]	0.0012
CC(C)N(Cc1cnc[nH]1)c1cccc(-c2ccccc2)c1 [Example 142, Biphenyl-3-yl-(3H-imidazol-4-ylmethyl)-isopropyl-amine]	0.0079
CN(Cc1cnc[nH]1)c1cccc(Br)c1 [Example 284, (3-Bromo-phenyl)-(3H-imidazol-4-ylmethyl)-methyl-amine]	0.002
CC(C)N(Cc1cnc[nH]1)c1cccc(Cc2ccccc2)c1 [Example 141, (3-Benzyl-phenyl)-(3H-imidazol-4-ylmethyl)-isopropyl-amine]	0.0015
CCN(Cc1cnc[nH]1)c1ccc(Cl)c(F)c1 [Example 307, (4-Chloro-3-fluoro-phenyl)-ethyl-(1H-imidazol-4-ylmethyl)-amine]	0.002
Cc1cccc(N(Cc2cnc[nH]2)C(C)C)c1 [Example 26, (3H-Imidazol-4-ylmethyl)-isopropyl-m-tolyl-amine]	0.0034
CCN(Cc1cnc[nH]1)c1nc(Cl)cc(Cl)n1 [Example 237, (4,6-Dichloro-pyrimidin-2-yl)-ethyl-(1H-imidazol-4-ylmethyl)-amine]	0.004
CC(C)N(Cc1cnc[nH]1)c1cc(F)cc(Cl)c1 [Example 76, (3-Chloro-5-fluoro-phenyl)-(3H-imidazol-4-ylmethyl)-isopropyl-amine]	0.0011
CCN(Cc1cnc[nH]1)c1ccc(Br)cc1 [Example 302, (4-Bromo-phenyl)-ethyl-(1H-imidazol-4-ylmethyl)-amine]	0.003

More lines, now with the values ahead:

Ki [µM]	SMILES
0.0089	COc1cccc(N(C)Cc2cnc[nH]2)c1 [Example 186, (3H-Imidazol-4-ylmethyl)-(3-methoxy-phenyl)-methyl-amine]
0.0018	CCN(Cc1cnc[nH]1)c1cccc(C)c1 [Example 6, Ethyl-(3H-imidazol-4-ylmethyl)-m-tolyl-amine]
0.001	CN(Cc1cnc[nH]1)c1cc(Cl)cc(Cl)c1 [Example 291, (3,5-Dichloro-phenyl)-(1H-imidazol-4-ylmethyl)-methyl-amine]
0.005	CC(C)N(Cc1cnc[nH]1)c1cccc(Oc2cccc(Cl)c2)c1 [Example 206, [3-(3-Chloro-phenoxy)-phenyl]-(3H-imidazol-4-ylmethyl)-isopropyl-amine]
0.0059	Clc1ccc(CN(Cc2cnc[nH]2)c2cccc(Cl)c2)cc1 [Example 20, (4-Chloro-benzyl)-(3-chloro-phenyl)-(1H-imidazol-4-ylmethyl)-amine]
0.0068	CN(Cc1cnc[nH]1)c1cccc(OC(F)F)c1 [Example 189, (3-Difluoromethoxy-phenyl)-(3H-imidazol-4-ylmethyl)-methyl-amine]
0.003	CC(C)N(Cc1cnc[nH]1)c1cc(F)cc(F)c1 [Example 101, (3,5-Difluoro-phenyl)-(3H-imidazol-4-ylmethyl)-isopropyl-amine]
0.009	CC(C)N(Cc1cnc[nH]1)c1cccc(OC(F)(F)F)c1 [Example 115, (3H-Imidazol-4-ylmethyl)-isopropyl-(3-trifluoromethoxy-phenyl)-amine]
0.0077	CC(C)N(Cc1cnc[nH]1)c1ccc(OCc2ccccc2)c(Cl)c1 [Example 133, (4-Benzyloxy-3-chloro-phenyl)-(1H-imidazol-4-ylmethyl)-isopropyl-amine]
0.001	CC(C)N(Cc1cnc[nH]1)c1cccc(Br)c1 [Example 242, (3-Bromo-phenyl)-(3H-imidazol-4-ylmethyl)-isopropyl-amine]
0.0028	Clc1cccc(Oc2cccc(NCc3cnc[nH]3)c2)c1 [Example 200, [3-(3-Chloro-phenoxy)-phenyl]-(3H-imidazol-4-ylmethyl)-amine]
0.002	FC(F)(F)Oc1ccc(NCc2cnc[nH]2)cc1Cl [Example 327, (3-Chloro-4-trifluoromethoxy-phenyl)-(1H-imidazol-4-ylmethyl)-amine]
